Molecular target: T1, human PDE10A (Homo sapiens, UniProt Q9Y233)
T1 construct: The human PDE10A full length assay; purchased Enzo Life Science, Lausen, Switzerland SE-534
Test: human PDE10A full length Scintillation Proximity Assay (SPA)
Format: biochemical
Settings: 50 nM cGMP and 50 nM [3H]-cGMP, 20 minutes at room temperature; read-out: PDE10A inhibition IC50
Procedure, shortened: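 Full-length enzyme at 3.75 ng/well in 20 mM HEPES pH 7.5, 10 mM MgCl2, 0.05 mg/ml BSA, with 50 nM cGMP plus 50 nM [3H]-cGMP substrate, 20 min at room temperature. Stopped with YSi-SPA beads in zinc sulphate and counted by scintillation. IC50 from inhibitor concentration series; no-enzyme wells define background.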

T1 sequence (Q9Y233 1-779 isoform Q9Y233-1): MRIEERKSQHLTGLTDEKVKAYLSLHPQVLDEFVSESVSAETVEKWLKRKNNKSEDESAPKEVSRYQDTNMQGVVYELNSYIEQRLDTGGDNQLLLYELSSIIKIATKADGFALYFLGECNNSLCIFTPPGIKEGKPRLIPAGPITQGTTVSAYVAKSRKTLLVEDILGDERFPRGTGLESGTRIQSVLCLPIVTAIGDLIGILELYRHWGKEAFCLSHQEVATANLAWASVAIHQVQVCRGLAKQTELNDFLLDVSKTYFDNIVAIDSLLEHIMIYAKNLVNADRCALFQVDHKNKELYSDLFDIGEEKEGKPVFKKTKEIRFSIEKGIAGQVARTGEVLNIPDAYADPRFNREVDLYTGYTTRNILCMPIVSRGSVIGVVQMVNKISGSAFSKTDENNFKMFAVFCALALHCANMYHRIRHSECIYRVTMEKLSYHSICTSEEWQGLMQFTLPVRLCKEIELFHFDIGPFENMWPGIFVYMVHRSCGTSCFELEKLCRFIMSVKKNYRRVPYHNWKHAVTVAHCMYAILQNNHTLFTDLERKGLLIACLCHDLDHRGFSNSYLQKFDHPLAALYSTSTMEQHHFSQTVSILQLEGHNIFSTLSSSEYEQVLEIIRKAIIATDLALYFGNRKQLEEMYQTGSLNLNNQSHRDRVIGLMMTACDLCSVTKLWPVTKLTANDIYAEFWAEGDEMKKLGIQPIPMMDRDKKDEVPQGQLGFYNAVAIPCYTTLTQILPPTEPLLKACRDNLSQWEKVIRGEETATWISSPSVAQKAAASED

Point of comparison: `Cn1ncc(C(=O)NC2(C#N)CC2)c1C(=O)Nc1ccn2cc(-c3ccccc3)nc2n1` [Example 145, N4-(1-cyanocyclopropyl)-1-methyl-N5-(2-phenylimidazo[1,2-a]pyrimidin-7-yl)-1H-pyrazole-4,5-dicarboxamide], IC50 210 nM. Against it:
- Cn1ncc(C(=O)Nc2ccccc2)c1C(=O)Nc1ccn2cc(-c3ccccc3)nc2n1 [Example 133, 1-methyl-N4-phenyl-N5-(2-phenylimidazo[1,2-a]pyrimidin-7-yl)-1H-pyrazole-4,5-dicarboxamide] — 4-fold lower, 52.2 nM
- Cn1ncc(C(=O)NC2(C)COC2)c1C(=O)Nc1ccn2cc(-c3ccccc3)nc2n1 [Example 134, 1-methyl-N4-(3-methyloxetan-3-yl)-N5-(2-phenylimidazo[1,2-a]pyrimidin-7-yl)-1H-pyrazole-4,5-dicarboxamide] — 3.6-fold lower, 57.6 nM
- CN(Cc1ccccn1)C(=O)c1cnn(C)c1C(=O)Nc1ccn2cc(-c3ccccc3)nc2n1 [Example 135, N4,1-dimethyl-N5-(2-phenylimidazo[1,2-a]pyrimidin-7-yl)-N4-(pyridin-2-ylmethyl)-1H-pyrazole-4,5-dicarboxamide] — 3.3-fold lower, 64.1 nM
- CN(Cc1ccc(Br)cn1)C(=O)c1cnn(C)c1C(=O)Nc1ccn2cc(-c3ccccc3)nc2n1 [Example 136, N4-((5-bromopyridin-2-yl)methyl)-N4,1-dimethyl-N5-(2-phenylimidazo[1,2-a]pyrimidin-7-yl)-1H-pyrazole-4,5-dicarboxamide] — 2.1-fold lower, 99.7 nM
- Cn1ncc(C(=O)N2CCOCC2c2cccnc2)c1C(=O)Nc1ccn2cc(-c3ccccc3)nc2n1 (stereo not drawn) [Example 137, 1-methyl-N-(2-phenylimidazo[1,2-a]pyrimidin-7-yl)-4-(3-(pyridin-3-yl)morpholine-4-carbonyl)-1H-pyrazole-5-carboxamide] — 1.8-fold lower, 117 nM
- Cn1ncc(C(=O)NC(C)(C)C)c1C(=O)Nc1ccn2cc(-c3ccccc3)nc2n1 [Example 138, N4-tert-butyl-1-methyl-N5-(2-phenylimidazo[1,2-a]pyrimidin-7-yl)-1H-pyrazole-4,5-dicarboxamide] — 1.6-fold lower, 130 nM
- CC(NC(=O)c1cnn(C)c1C(=O)Nc1ccn2cc(-c3ccccc3)nc2n1)c1cccnc1 (stereo not drawn) [Example 139, 1-methyl-N5-(2-phenylimidazo[1,2-a]pyrimidin-7-yl)-N4-(1-(pyridin-3-yl)ethyl)-1H-pyrazole-4,5-dicarboxamide] — within 1.5-fold, 148 nM
- Cc1nn(C)c(CNC(=O)c2cnn(C)c2C(=O)Nc2ccn3cc(-c4ccccc4)nc3n2)c1[N+](=O)[O-] [Example 140, N4-((1,3-dimethyl-4-nitro-1H-pyrazol-5-yl)methyl)-1-methyl-N5-(2-phenylimidazo[1,2-a]pyrimidin-7-yl)-1H-pyrazole-4,5-dicarboxamide] — within 1.5-fold, 151 nM
- O=C(Nc1ccn2cc(-c3ccccc3)nc2n1)c1nn[nH]c1C(=O)NC1COC1 [Example 141, N5-(oxetan-3-yl)-N4-(2-phenylimidazo[1,2-a]pyrimidin-7-yl)-1H-1,2,3-triazole-4,5-dicarboxamide] — within 1.5-fold, 151 nM
- Cn1ncc(C(=O)NCc2ccc(C#N)nc2)c1C(=O)Nc1ccn2cc(-c3ccccc3)nc2n1 [Example 142, N4-((6-cyanopyridin-3-yl)methyl)-1-methyl-N5-(2-phenylimidazo[1,2-a]pyrimidin-7-yl)-1H-pyrazole-4,5-dicarboxamide] — within 1.5-fold, 152 nM
- Cc1cc(CNC(=O)c2cnn(C)c2C(=O)Nc2ccn3cc(-c4ccccc4)nc3n2)no1 [Example 143, 1-methyl-N-4-((5-methylisoxazol-3-yl)methyl)-N5-(2-phenylimidazo[1,2-a]pyrimidin-7-yl)-1H-pyrazole-4,5-dicarboxamide] — within 1.5-fold, 162 nM
- Cn1ncc(C(=O)NCc2ccc(C(F)(F)F)nc2)c1C(=O)Nc1ccn2cc(-c3ccccc3)nc2n1 [Example 144, 1-methyl-N5-(2-phenylimidazo[1,2-a]pyrimidin-7-yl)-N-4-((6-(trifluoromethyl)pyridin-3-yl)methyl)-1H-pyrazole-4,5-dicarboxamide] — within 1.5-fold, 198 nM
- Cn1ncc(C(=O)NCc2ccon2)c1C(=O)Nc1ccn2cc(-c3ccccc3)nc2n1 [Example 146, N4-(isoxazol-3-ylmethyl)-1-methyl-N5-(2-phenylimidazo[1,2-a]pyrimidin-7-yl)-1H-pyrazole-4,5-dicarboxamide] — within 1.5-fold, 212 nM
- Cn1ncc(C(=O)NCc2nnn[nH]2)c1C(=O)Nc1ccn2cc(-c3ccccc3)nc2n1 [Example 147, N4-((1H-tetrazol-5-yl)methyl)-1-methyl-N5-(2-phenylimidazo[1,2-a]pyrimidin-7-yl)-1H-pyrazole-4,5-dicarboxamide] — within 1.5-fold, 235 nM
- Cn1ncc(C(=O)NCc2ccncc2)c1C(=O)Nc1ccn2cc(-c3ccccc3)nc2n1 [Example 148, 1-methyl-N5-(2-phenylimidazo[1,2-a]pyrimidin-7-yl)-N4-(pyridin-4-ylmethyl)-1H-pyrazole-4,5-dicarboxamide] — within 1.5-fold, 244 nM
- Cn1ncc(C(=O)NCc2cn3ccccc3n2)c1C(=O)Nc1ccn2cc(-c3ccccc3)nc2n1 [Example 149, N4-(imidazo[1,2-a]pyridin-2-ylmethyl)-1-methyl-N5-(2-phenylimidazo[1,2-a]pyrimidin-7-yl)-1H-pyrazole-4,5-dicarboxamide] — within 1.5-fold, 260 nM
- COCCNC(=O)c1[nH]nnc1C(=O)Nc1ccn2cc(-c3ccccc3)nc2n1 [Example 150, N5-(2-methoxyethyl)-N4-(2-phenylimidazo[1,2-a]pyrimidin-7-yl)-1H-1,2,3-triazole-4,5-dicarboxamide] — within 1.5-fold, 263 nM
- Cn1ncc(C(=O)NCc2nc(C#N)cs2)c1C(=O)Nc1ccn2cc(-c3ccccc3)nc2n1 [Example 151, N4-((4-cyanothiazol-2-yl)methyl)-1-methyl-N5-(2-phenylimidazo[1,2-a]pyrimidin-7-yl)-1H-pyrazole-4,5-dicarboxamide] — within 1.5-fold, 288 nM
- Cn1ncc(C(=O)NCc2cc(C3CC3)[nH]n2)c1C(=O)Nc1ccn2cc(-c3ccccc3)nc2n1 [Example 152, N4-((5-cyclopropyl-1H-pyrazol-3-yl)methyl)-1-methyl-N5-(2-phenylimidazo[1,2-a]pyrimidin-7-yl)-1H-pyrazole-4,5-dicarboxamide] — within 1.5-fold, 302 nM
- Cn1ncc(C(=O)NCc2cn3ccsc3n2)c1C(=O)Nc1ccn2cc(-c3ccccc3)nc2n1 [Example 153, N4-(imidazo[2,1-b]thiazol-6-ylmethyl)-1-methyl-N5-(2-phenylimidazo[1,2-a]pyrimidin-7-yl)-1H-pyrazole-4,5-dicarboxamide] — within 1.5-fold, 305 nM
- Cn1ncc(C(=O)NCc2ccc(Cl)nc2)c1C(=O)Nc1ccn2cc(-c3ccccc3)nc2n1 [Example 154, N4-((6-chloropyridin-3-yl)methyl)-1-methyl-N5-(2-phenylimidazo[1,2-a]pyrimidin-7-yl)-1H-pyrazole-4,5-dicarboxamide] — 1.5-fold higher, 315 nM
- Cc1ccc(CNC(=O)c2cnn(C)c2C(=O)Nc2ccn3cc(-c4ccccc4)nc3n2)nc1 [Example 155, 1-methyl-N4-((5-methylpyridin-2-yl)methyl)-N5-(2-phenylimidazo[1,2-a]pyrimidin-7-yl)-1H-pyrazole-4,5-dicarboxamide] — 1.6-fold higher, 346 nM
- CCCNC(=O)c1[nH]nnc1C(=O)Nc1ccn2cc(-c3ccccc3)nc2n1 [Example 156, N4-(2-phenylimidazo[1,2-a]pyrimidin-7-yl)-N5-propyl-1H-1,2,3-triazole-4,5-dicarboxamide] — 1.7-fold higher, 359 nM
